Data set [1] can be described thus: Impact of pH on solubility, buffered cosolvent system (plON pSOL Evolution). It counts as physicochemical. The note with it: for solubility: buffered cosolvent system. The protocol: Solubility was determined within a target pH range of 4.0-9.0 using a buffered cosolvent system (plON pSOL Evolution).
Data set [2] is described as follows: Effect of formulation pH on ocular surface, aqueous humor and systemic bioavailability after topical ocular dosing. In kind it is in vivo. As for the experimental part: Dose Formulation and Administration. Compound A was formulated at 0.12% w/v (the equivalent millimolar concentration is 3 mM) in 10 mM phosphate, 0.8% polysorbate 80, 0.85% NaCl, 0.01% BAC, 0.1% EDTA at three different pH's, 5.3, 6.3 and 7.3, Compound A was administered as a 30 μl drop to both eyes of each animal within a dosing group and the influence of pH on ocular and systemic exposure was examined.
Study sampling. Plasma, aqueous humor, and ocular samples were obtained from 2 animals (4 eyes) per dosing group at times of 0.25, 0.5, 1, and 2 hours post dosing.
Aqueous humor is the fluid within the anterior chamber of the eye and has the closest correlation to the concentration at the site of action, the trabecular meshwork. Cmax indicates the peak concentration of drug found within aqueous humor. AUC indicates total concentration of the drug within the aqueous humor over time.
Plasma concentration analysis indicates systemic exposure. Systemic exposure is the exposure of the drug to the entire body. Cmax and AUC describe the peak concentration and total concentration of the drug over time, respectively, for Compound A in plasma.
40 μL of saline was applied to the eyes at 0.25 h, 0.5 h, 1 h, and 2 h after administration of Compound A, and the lavage fluids were collected as samples. Ocular surface relates to the surface of the cornea and conjunctiva. Ocular surface residence time is the average time Compound A resides on the ocular surface.

Data set [3] in a line: Accelerated stability of Compound A formulation at 60° C., HPLC with UV detection. In kind it is physicochemical. The note with it: increase in pH from 5.3 to 6.3 and 7.3, 0.9% saline, 0.1% EDTA, 0.01% benzalkonium chloride, 0.8% polysorbate 80. From the text:
Compound A was formulated in a 0.9% saline solution containing 0.1% EDTA, 0.01% Benzalkonium Chloride and 0.8% Polysorbate 80 at three levels of pH; 5.3, 6.3 and 7.3.

Data set [4] in a line: Ocular comfort composite behaviour score after ocular instillation. In kind it is in vivo, rabbit. The protocol: Dose Formulation and Administration.
Formulation A: 10 mM phosphate, 1% polysorbate 80, 0.85% NaCl, 0.02% BAC, 0.2% EDTA pH 7.0.
Formulation B: 10 mM phosphate, 1% polysorbate 80, 2.36% Glycerol, 0.02% BAC, 0.2% EDTA pH 7.1.
Formulation C: 10 mM phosphate, 1% polysorbate 80, 2.36% Glycerol, 0.02% BAC, 0.2% EDTA, 0.5% hydroxypropyl methyl cellulose, pH 7.1.
Formulation D: 10 mM phosphate, 1% polysorbate 80, 2.36% Glycerol, 0.02% BAC, 0.2% EDTA, 1% 1,2 dimyristoyl-sn-glycero-3-phosphocholine, pH 7.1.
Pharmacodynamic Analysis. Formulations A-D were administered as two 30 μl drops to the right eye of each rabbit within a dosing group. The rabbits were evaluated for 15 minutes after ocular instillation and their changes in behavior were recorded. […] The higher the score, the more discomfort an animal is. A mean±SE was generated for each group.

A short description of data set [5]: Solubility of Compound A at target pH 7.3 in 0.85% NaCl vehicle with surfactant or chelating agent, filtered, UV analysis. It counts as physicochemical. Particulars: for Concentration Compound A: 20 mM prepared. An excerpt: Concentrations of the surfactant used were at the maximum allowable concentration for excipients Generally Regarded As Safe (GRAS).
[6] abbreviates: […] w/v, 30 μl drop to both eyes, increasing pH 5.3, 6.3, 7.3.

Values after ≈ are worked out from the molar mass of the structure shown. Like-named read-outs stand apart in the source and are kept apart here.

This is an account of results in patent US20100022517A1, “OPHTHALMIC FORMULATION OF RHO KINASE INHIBITOR COMPOUND” (priority 2006, published 2010).

Consider `CCS(=O)(=O)Nc1cccc(CN2CCC[C@@H](Nc3ccc4[nH]ncc4c3)C2)c1` [Compound 1.123, (R)-N-(3-((3-(1H-indazol-5-ylamino)piperidin-1-yl)methyl)phenyl)ethanesulfonamide], for which the solubility in data set [1] (pH 5.6, read-out: maximum solubility) was determined as 5000 µg/mL (≈ 12.1 mM). The “Avg. Sol” value was 5001 µg/mL in data set [1] (pH 5.6), 948 µg/mL in data set [1] (pH 7.2) and 282 µg/mL in data set [1] (pH 8.5).

In the case of `OCCOc1cccc(CN2CC[C@@H](Nc3cccc4cnccc34)C2)c1` [Compound 2.039, (R)-2-(3-((3-(isoquinolin-5-ylamino)pyrrolidin-1-yl)methyl)phenoxy)ethanol], the ocular surface concentration entry in data set [2] (0.25 h, between pH 5.3 and 6.3) was “increased only slightly”; in data set [2] (0.25 h, from pH 6.3 to 7.3) it was “no change”; in data set [2] (between 1 and 2 hours, pH 7.3), “remained consistent”. Moreover, the “aqueous humor exposure (Cmax and AUC)” value in data set [2] (setting [6]) is listed as “enhances the exposure within the aqueous humor”. The “plasma concentration (Cmax and AUC), systemic exposure” value in data set [2] (setting [6]) is listed as “no effect on the plasma concentration”. Further, the “ocular surface residence time” value in data set [2] ([…] w/v, pH increased from 5.3, 6.3 to 7.3, over 2 hours) is “increase in residence time”. Further, in data set [3], the “stability (percent of Compound A remaining)” value is “decrease in stability”. The ocular comfort score entry in data set [4] (0.16% w/v, two 30 μl drops, right eye, addition of 1% 1,2 dimyristoyl-sn-glycero-3-phosphocholine (Formulation D)) was “increased ocular discomfort”; in data set [4] (increasing concentrations 0.03%, 0.1%, 0.32% w/v in formulation A), “increased ocular discomfort”; in data set [4] (lower concentrations 0.03 and 0.1% w/v in formulation A, versus ALPHAGAN, RESTASIS, pilocarpine, LUMIGAN), “comparable to those of the approved glaucoma medications”. For the same molecule, the solubility in data set [1] (pH 4-5.8, read-out: solubility) is greater than 20000 µg/mL. Besides, the “Avg. Sol” value is greater than 20000 µg/mL in data set [1] (pH 4.0), greater than 20000 µg/mL in data set [1] (pH 5.8) and 2312 µg/mL in data set [1] (pH 7.7). Also, the “Concentration Compound A” value was determined as 1380 µg/mL in data set [5] (EDTA 0.3%, pH of solution 7.39, 0.85% NaCl); 2540 µg/mL in data set [5] (HCO-40 (hydrogenated castor oil) 0.5%, pH of solution 7.39, 0.85% NaCl); 1490 µg/mL in data set [5] (Poloxamer 188 0.1%, pH of solution 7.30, 0.85% NaCl); 6020 µg/mL in data set [5] (Poloxamer 407 0.16%, pH of solution 7.28, 0.85% NaCl); 3850 µg/mL in data set [5] (Polysorbate 80 1%, pH of solution 7.49, 0.85% NaCl). For the same molecule, in data set [5] (formulations containing polysorbate 80 and poloxamer 407, target pH 7.3), the “solubility of Compound A among the surfactant formulations” value is listed as “highest solubility”.

A word on the solubility: it is the concentration that dissolves in the medium under given conditions.
